A short description of data set [1]: Two-steps Dissolution/Precipitation in vitro Human Fasted model (gastric then intestinal compartment). The class given is physicochemical. The note with it: for Crystalline phase conversion as detected by XRPD: solid residues collected in the fasted Dissolution/Precipitation test. How it is done:
Samples were analysed by HPLC-UV according to the following method: • Instrument: Agilent 1200 and 1100 with PDA detector • Column: Waters XTerra MS C18 3.5 μm 4.6×50 mm • Flow rate: 1.5 ml/min • UV detection: 220 nm, 270 nm, 290 nm • Column temperature: 40° C. • Injection volume: 1 μl • Mobile phase: gradient with solutions A and B prepared according to the following: • Eluent A: Ultrapurified water adjusted to pH2 with orthophosphoric acid 85% • Eluent B: Acetonitrile
The ABX464 crystalline Form I, and anhydrous ABX464 hemi-Napadisylate salt have been evaluated in the Two-steps Dissolution/Precipitation in vitro Human model.
The model consists in the following steps: • Dispensing selected material in Fasted simulated gastric medium containing 1% w PVPVA (inhibitor of precipitation) and then after 30 min, • Diluting obtained suspension by simulated Fasted intestinal medium.
Using this model, the dissolution of selected materials (ABX464 crystalline Form I, or anhydrous BX464 hemi-Napadisylate salt) in gastric medium and the risk of precipitation of the API (Active Pharmaceutical Ingredient) in intestinal compartment is evaluated.
The crystalline nature of solid residues collected by end of each steps (Gastric and Intestinal) have been determined by XRPD after centrifugation (15 min at 18000 rpm).
Protocol for Dissolution/Precipitation Model in Human Fasted Conditions • In 6 different vials, 4.0 mg equivalent ABX464 of selected material are weighed • Solubility measurement in the gastric compartment (also named G) after 15 min (G15 min) and after 30 min (G30 min) which comprises the following steps: • Adding 1 mL of FaSSGF pH 1.2 medium containing 1% w PVPVA (ABX464 target concentration=4 mg/ml) on the 6 vials, • Mixing with a vortex at 37° C. • At times 15 min and 30 min, considering one vial (vials labelled G15 min and G30 min respectively) and for each vials • noting the aspect of suspension, • centrifuging 5 min at 18000 rpm and filtering on a 0.45 μm filter (filter Millex LCR Ref. SLCR0,13NK). • Measuring the pH of supernatant, • Dosing ABX464 soluble fraction by HPLC, • Recording XPRD pattern on the final time point sample. • Solubility measurement in the intestinal compartment (also named I) after 15 min (vial I 15 min), 30 min (vial I 30 min), 60 min (vial I 60 min) and 120 min (vial I 120 min) which comprises the following steps: • Adding 1 mL of FaSSIF ×2 pH 6.5 medium/sodium bicarbonate 90/10) on the 4 remaining vials (ABX464 target concentration=2 mg/ml) • Mixing with a Vortex at 37° C. • At times 15 min, 30 min, 60 min and 120 min, considering one vial (vials labelled I 15 min, I 30 min, I 60 min and I 120 min respectively) and for each vials • noting the aspect of suspension • Centrifuging 5 min at 18000 rpm and filtering on a 0.45 μm filter (filter Millex LCR Ref. SLCR0,13NK). • Measuring the pH of supernatant • Dosing ABX464 soluble fraction by HPLC • Recording XPRD pattern on the final time point sample.
Composition and preparation of biorelevant media in Fasted conditions (see tables 11 and 12): • Fasted Gastric medium=FaSSGF pH=1.2/1% PVPVA w/v
• Fasted Intestinal medium (FaSSIF X2 pH=6.5/Sodium Bicarbonate at 80 g/l 90/10 v/v) Composition/Preparation of FaSSIF ×2 (medium concentrated 2 times to take into account the dilution in the Fasted model):
The FaSSIF X2/Sodium Bicarbonate 80 g/l (90/10; v/v) mixture was prepared to keep pH equal to 6.5 in the intestinal compartment after dilution.

Another data set in a line: physchem. To be noted: thermodynamic from solid.
Data set [2] can be described thus: Kinetic solubility in two aqueous media (FaSSIF pH 6.5 + 1% PVPVA; FeSSIF pH 5.0 + 1% PVPVA). The note with it: for Solubility compared to the ABX464 crystalline Form I: FaSSIF and FeSSIF media (+ 1% PVPVA), at each time; for Kinetic solubility: room temperature, 2 mg/ml equivalent ABX464 target.
Procedure: (§1) These two specific aqueous media are more particularly: • FaSSIF (namely Fasted State Simulated Intestinal Fluid) pH=6.5+1% by weight of PVPVA (polyvinyl pyrrolidone-vinyl acetate: a precipitation inhibitor); and • FeSSIF (namely Fed State Simulated Intestinal Fluid) pH=5.0+1% by weight of PVPVA (a precipitation inhibitor)
(§2) To make 5 mL of FeSSIF the steps were as follows: • weighing 56.0 mg of SIF Powder, adding 350 μl of FeSSIF Buffer Concentrate then making up to 5.0 mL with ultrapurified water; and adding 1% w/w PVPVA.
Setting [3] is: FaSSIF pH 6.5 + 1% PVPVA, pH 6.5, aqueous with cosolvent or surfactant or cyclodextrin.
Setting [4] is: FeSSIF + 1% PVPVA, pH 5, aqueous with cosolvent or surfactant or cyclodextrin.
[5] abbreviates: FeSSIF pH 5 + 1% PVPVA, pH 5, aqueous with cosolvent or surfactant or cyclodextrin.

The structures appear in SMILES notation. ≈ marks a conversion by molar mass, not a printed value. Like-named read-outs stand apart in the source and are kept apart here.

The text below walks through data of US20230067676A1, “CO-CRYSTALS AND SALTS OF 8-CHLORO-N-(4-(TRIFLUOROMETHOXY)PHENYL)QUINOLIN-2-AMINE” (ABIVAX, priority 2020, published 2023).

Procedure for physchem: as §1, §2

As for `FC(F)(F)Oc1ccc(Nc2ccc3cccc(Cl)c3n2)cc1` [ABX464 crystalline Form I, 8-chloro-N-(4-(trifluoromethoxy)phenyl)quinolin-2-amine], the solubility at 15 min in data set [1] (37 °C, pH 1.2, fassgf or other biorelevant, thermodynamic from solid, gastric compartment, vial G 15 min, FaSSGF pH 1.2 + 1% PVPVA, 37° C., target about 4 mg/ml, read-out: Soluble fraction) turned out to be 60 µg/mL. The solubility at 30 min in data set [1] (37 °C, pH 1.2, fassgf or other biorelevant, thermodynamic from solid, gastric compartment, vial G 30 min, FaSSGF pH 1.2 + 1% PVPVA, 37° C., target about 4 mg/ml, read-out: Soluble fraction) was 70 µg/mL. The solubility in data set [1] (37 °C, pH 6.5, fassif, thermodynamic from solid, intestinal compartment at pH 6.5 of the fasted human in vitro model, read-out: Solubility (ABX464 soluble fraction) in the intestinal compartment) is roughly 80 µg/mL (≈ 236 µM). In data set [1] (37 °C, pH 6.5, fassif, thermodynamic from solid, intestinal compartment, vial I 15 min (45 min total), FaSSIF x2 pH 6.5/sodium bicarbonate 90/10 added, 37° C., target about 2 mg/ml, read-out: Soluble fraction), the solubility at 15 min is 60 µg/mL (≈ 177 µM). Moreover, the solubility at 30 min in data set [1] (37 °C, pH 6.5, fassif, thermodynamic from solid, intestinal compartment, vial I 30 min (60 min total), FaSSIF x2 pH 6.5/sodium bicarbonate 90/10 added, 37° C., target about 2 mg/ml, read-out: Soluble fraction) stood at 70 µg/mL (≈ 207 µM). Moreover, the solubility at 60 min in data set [1] (37 °C, pH 6.5, fassif, thermodynamic from solid, intestinal compartment, vial I 60 min (90 min total), FaSSIF x2 pH 6.5/sodium bicarbonate 90/10 added, 37° C., target about 2 mg/ml, read-out: Soluble fraction) was 70 µg/mL (≈ 207 µM). Moreover, the solubility at 120 min in data set [1] (37 °C, pH 6.5, fassif, thermodynamic from solid, intestinal compartment, vial I 120 min (150 min total), FaSSIF x2 pH 6.5/sodium bicarbonate 90/10 added, 37° C., target about 2 mg/ml, read-out: Soluble fraction) was determined as 80 µg/mL (≈ 236 µM). Also, in data set [1] (intestinal compartment), the “Crystalline phase conversion as detected by XRPD” value was “no crystalline phase conversion”. In “physchem” (setting [3]), the kinetic solubility (usually solubility judged after dilution from a stock solution rather than from solid) at 5 min amounted to 6 µg/mL, the solubility (kinetic) at 30 min is 22 µg/mL, the kinetic solubility at 2 h is 47 µg/mL and the kinetic solubility at 4 h was 62 µg/mL. For the same molecule, the kinetic solubility at 24 h in the data set “physchem” (setting [3]) worked out at 72 µg/mL. In “physchem” (setting [4]), the solubility at 2 h was roughly 300 µg/mL and the solubility at 24 h is roughly 420 µg/mL. Moreover, in the data set “physchem” (setting [5]), the kinetic solubility at 5 min amounted to 54 µg/mL, the kinetic solubility at 30 min was 153 µg/mL, the kinetic solubility at 2 h was 297 µg/mL and the solubility (kinetic) at 4 h is 358 µg/mL. The solubility (kinetic) at 24 h in the data set “physchem” (setting [5]) came out at 419 µg/mL.

`FC(F)(F)Oc1ccc(Nc2ccc3cccc(Cl)c3n2)cc1.FC(F)(F)Oc1ccc(Nc2ccc3cccc(Cl)c3n2)cc1.O=S(=O)(O)c1cccc2c(S(=O)(=O)O)cccc12` [anhydrous ABX464 hemi-Napadisylate salt]: the Soluble fraction was determined as 0.05 mg/mL in data set [1] (gastric compartment, vial G 15 min, FaSSGF pH 1.2 + 1% PVPVA, 37° C., target about 4 mg/ml); 0.06 mg/mL in data set [1] (gastric compartment, vial G 30 min, FaSSGF pH 1.2 + 1% PVPVA, 37° C., target about 4 mg/ml); 0.17 mg/mL in data set [1] (intestinal compartment, vial I 15 min (45 min total), FaSSIF x2 pH 6.5/sodium bicarbonate 90/10 added, 37° C., target about 2 mg/ml); 0.23 mg/mL in data set [1] (intestinal compartment, vial I 30 min (60 min total), FaSSIF x2 pH 6.5/sodium bicarbonate 90/10 added, 37° C., target about 2 mg/ml); 0.32 mg/mL in data set [1] (intestinal compartment, vial I 60 min (90 min total), FaSSIF x2 pH 6.5/sodium bicarbonate 90/10 added, 37° C., target about 2 mg/ml); 0.43 mg/mL in data set [1] (intestinal compartment, vial I 120 min (150 min total), FaSSIF x2 pH 6.5/sodium bicarbonate 90/10 added, 37° C., target about 2 mg/ml). For the same molecule, in data set [1] (intestinal compartment at pH 6.5 of the fasted human in vitro model), the “Solubility (ABX464 soluble fraction) in the intestinal compartment” value was roughly 430 µg/mL. For the same molecule, the “Crystalline phase conversion as detected by XRPD” value in data set [1] (intestinal compartment) is “no crystalline phase conversion”. Moreover, the “Solubility compared to the ABX464 crystalline Form I” value in data set [2] is recorded as “higher solubility”; in data set [2] (listed as ABX464 hemi-Napadisylate salt), “significant higher solubility”. In addition, the Kinetic solubility in data set [2] (FassiF pH 6.5 + 1% PVPVA, sampling time 5 min) amounted to 70 µg/mL; in data set [2] (FassiF pH 6.5 + 1% PVPVA, sampling time 30 min) it was 116 µg/mL; in data set [2] (FassiF pH 6.5 + 1% PVPVA, sampling time 2 h), 149 µg/mL; in data set [2] (FassiF pH 6.5 + 1% PVPVA, sampling time 4 h), 206 µg/mL; in data set [2] (FassiF pH 6.5 + 1% PVPVA, sampling time 24 h), 432 µg/mL; in data set [2] (FessiF pH 5 + 1% PVPVA, sampling time 5 min) it was 396 µg/mL. Besides, the Kinetic solubility in data set [2] (FessiF pH 5 + 1% PVPVA, sampling time 30 min) amounted to 782 µg/mL; in data set [2] (FessiF pH 5 + 1% PVPVA, sampling time 2 h), 1053 µg/mL; in data set [2] (FessiF pH 5 + 1% PVPVA, sampling time 4 h), 1055 µg/mL; in data set [2] (FessiF pH 5 + 1% PVPVA, sampling time 24 h) it was 1517 µg/mL. Besides, the “Solubility, plateau” value in data set [2] (FeSSIF + 1% PVPVA medium, at 2 h) was roughly 1.05 mg/mL. Moreover, the solubility in data set [2] (FeSSIF + 1% PVPVA medium, at 24 h) is roughly 1.52 mg/mL.
